What was measured:
JAK1 = JAK1 (Homo sapiens, UniProt P23458); test: Phospho-STAT3 (Tyr705) ACUMEN H1975-JAK1 cell-based assay; design: endogenous in cells; conditions: H1975 NSCLC cells, 4 hr; n=1; read-out: IC50, pSTAT3 (Tyr705) in H1975 cells
Procedure: Phospho-STAT3 (Tyr705) ACUMEN Protocol—H1975-JAK1 Cell-Based Assay
An H1975-JAK1 cellular assay is used to confirm the potency of test compounds in NSCLC cells in which the STAT3 pathway is activated by autocrine IL-6 loop. […]
On Day 2, perform the following steps sequentially: wash 2 times with 100 μL PBS; add 50 μL of secondary antibody (1:1000; Ab2° goat anti-mouse IgG); incubate for 1 hour at RT in the dark; wash 2 times with 100 μL PBS; add 100 μL of Propidium Iodide (1:1000 in PBS from commercial solution) containing RNAse (50 μg/mL in PBS); seal plates with transparent film and incubate at RT for 2 hours before reading; read on Acumen Explorer (set parameter based on positive and negative well). […]

[1] = system: Ba/F3 cells expressing human mtJAK1 (S729C); test: BaF3 Mutant JAK-1 (S729C) Clone 12 Proliferation Assay; format: cell-based, Murine; conditions: BaF3, 72 h; 3 day incubation, Cell Titer Glo; n=4
Procedure: BaF3 Mutant JAK-1 (S729C) Clone 12 Proliferation Assay
The purpose of this assay is to determine the inhibitory activity of JAK-1 specific inhibitors using the BaF3 mutant JAK-1 (S729C) Clone 12 proliferation assay.
mtJAK1 (S729C) expressing cell line is created by transducing Ba/F3 cells (Murine pro-B-cells) with a retrovirus expressing human mtJAK1 (S729C)-pQCXIN vector DNA. Single cell cloning is performed to select Ba/F3 cells expressing highest levels of mtJAK1 (S729C) by serial dilution. BaF3 mutant JAK-1 (S729C) suspension cells are cultured and maintained in (Gibco RPMI 1640 cat# A10491-01) containing 10% Hi-FBS (Hyclone cat#10082-047), 1 μg/ml puromycin dihydrochloride (Sigma cat#9620), 1.0 mg/mL G418 sulfate (Corning ref#30-234-CI), referred to as R10+ from now on.
Proliferation assays are performed in culture medium without selection and from now on will be referred to as (R10−). Briefly, cultured cells are decanted, centrifuged and reconstituted in 10 mL of R10− and counted using a Beckman Coulter Vi-Cell. Cells are further diluted to 2e4/mL in R10− and plated in a 96 well white opaque assay plates (Costar cat#3610) at 1×10^3 cells (50 μls) per well. […] Luminescence is then read on a Perkin Elmer Victor2 using a preset program for luminescence at 0.1 second. […]

JAK1, sequence (P23458 whole entry): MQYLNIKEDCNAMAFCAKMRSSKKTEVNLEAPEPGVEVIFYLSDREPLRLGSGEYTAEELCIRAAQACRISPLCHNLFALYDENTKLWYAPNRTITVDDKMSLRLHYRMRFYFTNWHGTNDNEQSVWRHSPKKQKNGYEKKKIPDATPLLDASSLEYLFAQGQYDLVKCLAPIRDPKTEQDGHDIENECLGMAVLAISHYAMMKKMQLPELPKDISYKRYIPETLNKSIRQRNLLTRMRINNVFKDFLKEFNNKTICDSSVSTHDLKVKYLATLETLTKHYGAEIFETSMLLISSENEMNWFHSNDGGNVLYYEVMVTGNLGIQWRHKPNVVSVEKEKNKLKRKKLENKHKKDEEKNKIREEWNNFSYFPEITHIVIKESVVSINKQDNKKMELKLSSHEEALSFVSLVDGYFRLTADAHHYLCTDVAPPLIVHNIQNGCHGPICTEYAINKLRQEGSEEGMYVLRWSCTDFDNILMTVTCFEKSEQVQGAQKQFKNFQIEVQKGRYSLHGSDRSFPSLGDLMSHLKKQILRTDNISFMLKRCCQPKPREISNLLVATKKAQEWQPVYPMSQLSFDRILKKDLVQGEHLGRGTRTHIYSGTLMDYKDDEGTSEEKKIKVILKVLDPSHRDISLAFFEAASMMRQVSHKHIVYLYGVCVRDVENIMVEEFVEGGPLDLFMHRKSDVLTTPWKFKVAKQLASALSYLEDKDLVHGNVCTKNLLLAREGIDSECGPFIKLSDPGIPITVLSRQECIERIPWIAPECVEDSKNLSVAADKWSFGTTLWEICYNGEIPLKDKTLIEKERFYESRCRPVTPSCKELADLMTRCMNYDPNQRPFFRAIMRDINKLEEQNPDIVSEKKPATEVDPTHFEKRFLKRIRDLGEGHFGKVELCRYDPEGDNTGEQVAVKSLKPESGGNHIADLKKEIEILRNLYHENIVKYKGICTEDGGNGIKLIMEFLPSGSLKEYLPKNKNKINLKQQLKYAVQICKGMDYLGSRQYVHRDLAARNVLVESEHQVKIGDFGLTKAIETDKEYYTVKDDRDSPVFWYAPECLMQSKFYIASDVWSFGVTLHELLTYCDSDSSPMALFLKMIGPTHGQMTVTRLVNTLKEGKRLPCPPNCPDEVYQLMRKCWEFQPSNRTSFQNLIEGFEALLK

In the case of Cc1cc(Nc2cc(O[C@H]3CC[C@@H](NC[C@@H](O)C(F)(F)F)CC3)cc3c2ncn3C)nn1C [Example 1, (2R)-3-{[cis-4-({4-[(1,5-Dimethyl-1H-pyrazol-3-yl)amino]-1-methyl-1H-benzimidazol-6-yl}oxy)cyclohexyl]amino}-1,1,1-trifluoropropan-2-ol], the IC50 (JAK1) is reported as 297 nM and the IC50 [1] is reported as 956 nM.
